Data from US20070082910A1, “Specific nad(p)h oxidase inhibitor” (Mitsubishi Pharma Corporation, priority 2003, published 2007).

System: p22^Phox
Test: Effect on p22^Phox expression induced by oxidized LDL in HUVEC (RT-PCR)
Format: cell-based, human
Protocol: HUVEC was seeded in a 24-well collagen-coated plate. Compound A was added, and oxidized LDL (100 μg/mL) prepared from the blood obtained from normal healthy volunteers was added 24 hr later.
At 24 hr after the oxidized LDL addition, total RNA was […] extracted using MgExtractor (TOYOBO) and DNase I treatment (Nippon gene) was conducted.
The concentration of the total RNA was calculated by measuring absorbance (OD260) of a fraction therefrom.
Using the obtained total RNA (100 ng), RT (reverse transcription) reaction (ABI) was carried out to synthesis cDNA.
Using the synthesized cDNA (10 μL), PCR (polymerase chain reaction) was carried out (ABI), and expression amounts of p22^Phox which is a major component of NAD(P)H oxidase, and β-actin as an internal standard were measured.
The expression amount of p22^Phox was standardized to the expression amount of β-actin and expressed based on the expression amount of (p22^Phox)/( β-actin) of normal as 100%.

Which results are given for C[C@@H](Nc1nnc(-c2ccccc2)c2ccccc12)C1CCCCC1.O=C(O)/C=C\C(=O)O [compound A]?
p22^phox expression ((p22^Phox)/(β-actin), normal as 100%) (oxidized LDL 100 μg/mL + 0.1 μM compound, mean ± standard error): 116.64 ± 16.61 %; p22^Phox expression relative to the normal group (oxidized LDL addition): 1.2 fold
